Patent publication EP3294317B1, “ENHANCED ANTIBIOTIC COMPOSITION” (Universitat Autònoma de Barcelona, priority 2015, dated 2016)

Legend:
[1] = system: Pseudomonas aeruginosa ATCC 27853; assay: Colistin broth microdilution MIC with potentiator compounds (Example 1); type: cell-based; details: P. aeruginosa ATCC 27853; MIC in the presence of 1.0% DMSO / MIC in the presence of 0.1 mM potentiator compound and 1.0% DMSO; positive = increased, negative = decreased susceptibility, 1 = no effect
A. baumannii 6799 = assay: Colistin broth microdilution MIC with potentiator compounds, resistant clinical isolates (Example 3); type: cell-based, Acinetobacter baumannii; details: MIC in the presence of 1.0% DMSO / MIC in the presence of 0.1 mM compound and 1.0% DMSO, positive = increased susceptibility, 1 = no effect
Procedure: The potentiator effect of the compound of the invention and other compounds disclosed herein was tested using colistin sulfate as antibiotic and in combination with the enhancer compounds in front of resistant clinical isolates.
Tests were performed to determine the potentiator effect of the compound of the invention and other compounds disclosed herein with multidrug-resistant S. maltophilia and A. baumannii clinical strains as shown in Table 5: TABLE 5
For this experiment the potentiator compound was added to a colistin broth microdilution assay at a final concentration of 0.1mM. MICs were determined as described in the Example 1.
Colistin minimal inhibitory concentration (MIC), expressed in µg/mL, and the fold increase in bacterial susceptibility to colistin when combined with the potentiator compound (expressed as MIC in the presence of 1.0% DMSO / MIC in the presence of 0.1 mM of each potentiator compound and 1.0% DMSO) are shown in Table 6: […]

[2] = system: Salmonella enterica subsp. enterica ATCC 14028; assay: Colistin broth microdilution MIC with potentiator compounds (Example 1); type: cell-based; details: S. enterica ATCC 14028; MIC in the presence of 1.0% DMSO / MIC in the presence of 0.1 mM potentiator compound and 1.0% DMSO; positive = increased, negative = decreased susceptibility, 1 = no effect
[3] = system: Stenotrophomonas maltophilia ATCC 13637; assay: as above; type: cell-based; details: S. maltophilia ATCC 13637; MIC in the presence of 1.0% DMSO / MIC in the presence of 0.1 mM potentiator compound and 1.0% DMSO; positive = increased, negative = decreased susceptibility, 1 = no effect
S. aureus RN4220 = assay: Broth microdilution MIC of compound of formula I alone (Example 5); type: cell-based; details: Staphylococcus aureus, RN4220, read-out: Compound of formula I MIC in the presence of 1.0% DMSO
Procedure: (§1) The antimicrobial effect of the compound of formula I of the invention was tested in front of specific Gram-positive bacterium, Staphylococcus aureus, an agent usually involved in hospital-acquired infections. For this experiment the S. aureus reference and clinical isolates shown in Table 8 were used, including Methicillin-resistant S. aureus (MRSA): TABLE 8
(§2) Antimicrobial susceptibility testing of these isolates was performed using the broth microdilution (BMD) method, according to CLSI guidelines (Example 1).
(§3) Selected compound of formula I was first dissolved in 100% of sterile-filtered dimethyl sulfoxide (DMSO, Sigma, D2438) to 20 mM. 100 µL of bacterial suspension (final OD550nm=0.01) in MHB were added to the compound dilutions in each well (concentration range from 0.2 mM to 3.125 µM), and the final suspension was mixed and incubated without shaking at 37° C for 24 h before developing with 30 µL of a 0.01% aqueous solution of resazurin. For the experiment all bacteria were first grown overnight in CAMHB using CLSI recommended incubation conditions.
(§4) The compound MIC, expressed in mM, was defined as the lowest concentration of compound at which no visible growth was obtained.

S. aureus Newman = assay: as above; type: cell-based; details: Staphylococcus aureus, NBRC102137 / NEWMAN, Reference strain, NBRC 102137, read-out: Compound of formula I MIC in the presence of 1.0% DMSO
Procedure: as §1, §2, §3, §4

S. aureus Seatle 1945 = assay: as above; type: cell-based; details: Staphylococcus aureus, ATCC25923, Reference strain, ATCC 25923, read-out: Compound of formula I MIC in the presence of 1.0% DMSO
Procedure: as §1, §2, §3, §4

S. aureus SA0003 = assay: as above; type: cell-based; details: Staphylococcus aureus, Clinical strain, (resistant to penicillin), read-out: Compound of formula I MIC in the presence of 1.0% DMSO
Procedure: as §1, §2, §3, §4

S. aureus SA0004 = assay: as above; type: cell-based; details: Staphylococcus aureus, Clinical strain, (MRSA, and resistant to ciprofloxacin and cloxacillin), read-out: Compound of formula I MIC in the presence of 1.0% DMSO
Procedure: as §1, §2, §3, §4

S. aureus RN6390 = assay: as above; type: cell-based; details: Staphylococcus aureus, RN6390, read-out: Compound of formula I MIC in the presence of 1.0% DMSO
Procedure: as §1, §2, §3, §4

S. aureus USA 300 = assay: as above; type: cell-based; details: Staphylococcus aureus, ATCC BAA-1556 / MRSA / USA300, Reference strain, read-out: Compound of formula I MIC in the presence of 1.0% DMSO
Procedure: as §1, §2, §3, §4

S. aureus SA0001 = assay: as above; type: cell-based; details: Staphylococcus aureus, Clinical strain, (resistant to penicillin), read-out: Compound of formula I MIC in the presence of 1.0% DMSO
Procedure: as §1, §2, §3, §4

S. aureus F-182 = assay: as above; type: cell-based; details: Staphylococcus aureus, ATCC43300, Reference strain, ATCC 43300 (CLSI standard), read-out: Compound of formula I MIC in the presence of 1.0% DMSO
Procedure: as §1, §2, §3, §4

S. aureus V8 = assay: as above; type: cell-based; details: Staphylococcus aureus, ATCC49775, Reference strain, ATCC 49775, read-out: Compound of formula I MIC in the presence of 1.0% DMSO
Procedure: as §1, §2, §3, §4

S. aureus RN6911 = assay: as above; type: cell-based; details: Staphylococcus aureus, RN6911, read-out: Compound of formula I MIC in the presence of 1.0% DMSO
Procedure: as §1, §2, §3, §4

S. aureus SA0002 = assay: as above; type: cell-based; details: Staphylococcus aureus, Clinical strain, (resistant to penicillin), read-out: Compound of formula I MIC in the presence of 1.0% DMSO
Procedure: as §1, §2, §3, §4

[4] = system: Enterobacter aerogenes ATCC 13048; assay: Colistin broth microdilution MIC with potentiator compounds (Example 1); type: cell-based; details: E. aerogenes ATCC 13048; MIC in the presence of 1.0% DMSO / MIC in the presence of 0.1 mM potentiator compound and 1.0% DMSO; positive = increased, negative = decreased susceptibility, 1 = no effect
[5] = system: Escherichia coli ATCC 9637; assay: as above; type: cell-based; details: E. coli ATCC 9637; MIC in the presence of 1.0% DMSO / MIC in the presence of 0.1 mM potentiator compound and 1.0% DMSO; positive = increased, negative = decreased susceptibility, 1 = no effect

## CN(C)CCNC(=O)c1cccc(CNC(=O)Nc2ccc3c(c2)Cc2ccccc2-3)c1 [I, N-[2-(dimethylamino)ethyl]-3-[(9H-fluoren-2-ylcarbamoylamino)methyl]benzamide]
[1]
  Fold increase in bacterial susceptibility to colistin: +2 fold
A. baumannii 6799
  Fold increase in bacterial susceptibility to colistin: +8 fold
[2]
  Fold increase in bacterial susceptibility to colistin: +2 fold
[3]
  Fold increase in bacterial susceptibility to colistin: +64 fold
S. aureus RN4220
  MIC: 200 µM
S. aureus Newman
  MIC: 200 µM
S. aureus Seatle 1945
  MIC: 200 µM
S. aureus SA0003
  MIC: 100 µM
S. aureus SA0004
  MIC: 200 µM
S. aureus RN6390
  MIC: 200 µM
S. aureus USA 300
  MIC: 200 µM
S. aureus SA0001
  MIC: 200 µM
S. aureus F-182
  MIC: 200 µM
S. aureus V8
  MIC: 200 µM
S. aureus RN6911
  MIC: 200 µM
S. aureus SA0002
  MIC: 100 µM
[4]
  Fold increase in bacterial susceptibility to colistin: +2 fold
[5]
  Fold increase in bacterial susceptibility to colistin: +2 fold
